Reference: article PMC6797481, “Identification of an allosteric binding site on the human glycine transporter, GlyT2, for bioactive lipid analgesics” (eLife, 2019)
Numbering of substitutions follows the chain as printed.

What was measured:
Assay type in all cases: cell-based
GlyT2 L569F mutant = target: T1, GlyT2 L569F mutant (Homo sapiens, UniProt Q9Y345, L569F); test: Glycine transport currents, two electrode voltage clamp, oocytes expressing GlyT2 L569F; details: for % Max. inhibition: mean ± SEM
T1 construct: expressed in transfected cells; host or cells: Xenopus laevis oocytes (cRNA injection)
T1 sequence (Q9Y345 1-797 L569F): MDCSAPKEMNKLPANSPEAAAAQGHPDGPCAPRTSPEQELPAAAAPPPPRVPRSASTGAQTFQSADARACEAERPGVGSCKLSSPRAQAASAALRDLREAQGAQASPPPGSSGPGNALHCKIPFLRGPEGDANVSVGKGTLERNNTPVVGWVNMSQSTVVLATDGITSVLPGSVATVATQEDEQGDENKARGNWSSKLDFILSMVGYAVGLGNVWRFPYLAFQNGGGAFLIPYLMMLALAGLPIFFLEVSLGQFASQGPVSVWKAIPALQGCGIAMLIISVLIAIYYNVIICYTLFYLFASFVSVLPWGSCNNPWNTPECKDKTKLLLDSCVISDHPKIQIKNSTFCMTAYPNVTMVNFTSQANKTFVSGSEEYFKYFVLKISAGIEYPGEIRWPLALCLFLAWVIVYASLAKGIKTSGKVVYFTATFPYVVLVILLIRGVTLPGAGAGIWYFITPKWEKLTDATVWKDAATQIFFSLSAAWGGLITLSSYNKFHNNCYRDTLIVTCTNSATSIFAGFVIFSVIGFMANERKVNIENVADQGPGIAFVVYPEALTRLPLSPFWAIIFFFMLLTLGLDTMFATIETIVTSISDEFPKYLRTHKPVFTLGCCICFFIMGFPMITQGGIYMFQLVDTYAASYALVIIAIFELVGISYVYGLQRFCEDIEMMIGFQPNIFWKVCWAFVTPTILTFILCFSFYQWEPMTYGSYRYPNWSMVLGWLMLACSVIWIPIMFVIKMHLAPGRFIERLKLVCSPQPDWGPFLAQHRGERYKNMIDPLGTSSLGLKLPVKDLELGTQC
Description: (§1) Glycine was first applied to establish maximal transport current.
(§2) Compounds were tested for inhibition of glycine transport on Xenopus laevis oocytes expressing mutant GlyT1 and GlyT2 transporters. n values are in brackets, with measurements taken from at least 2 batches of oocytes.

GlyT2 I545L mutant = target: T2, GlyT2 I545L mutant (Homo sapiens, UniProt Q9Y345, I545L); test: Glycine transport currents, two electrode voltage clamp, Xenopus laevis oocytes expressing GlyT2 I545L; details: for % Max. inhibition: mean ± SEM
T2 construct: expressed in transfected cells; host or cells: Xenopus laevis oocytes (cRNA injection)
T2 sequence (Q9Y345 1-797 I545L): T1 sequence (Q9Y345 1-797 L569F) with I545L, F569L
Description: as §1, §2

GlyT2 F428A mutant = target: T3, GlyT2 F428A mutant (Homo sapiens, UniProt Q9Y345, F428A); test: Glycine transport currents, two electrode voltage clamp, oocytes expressing GlyT2 F428A; details: for % Max. inhibition (% inhibition at the highest concentration of inhibitor used): footnote b
T3 construct: expressed in transfected cells; host or cells: Xenopus laevis oocytes (cRNA injection)
T3 sequence (Q9Y345 1-797 F428A): T1 sequence (Q9Y345 1-797 L569F) with F428A, F569L
Description: as §1, §2

[1] = GlyT2 I545L, greater than maximum concentration applied (footnote a)

## CCCCCCCC/C=C\CCCCCCCC(=O)N[C@@H](CCCCN)C(=O)O [oleoyl l-Lysine]
GlyT2 L569F mutant; GlyT2 L569F, mean (95% CI)
  IC50: 0.301 µM
GlyT2 L569F mutant; GlyT2 L569F
  % Max. inhibition: 76.8 ± 5.8 (p=0.4504) %
GlyT2 I545L mutant; GlyT2 I545L compared with WT GlyT2
  fold lower potency at I545L: ~ 17 fold
GlyT2 I545L mutant; GlyT2 I545L, mean (95% CI)
  IC50: 0.443 µM
GlyT2 I545L mutant; GlyT2 I545L
  % Max. inhibition: 80.7%
GlyT2 F428A mutant; GlyT2 F428A
  IC50: > 3 µM
  % Max. inhibition (% inhibition at the highest concentration of inhibitor used): 39.2 ± 2.3^b (p=0.0001) %

## CCCCCCCC/C=C\CCCCCCCC(=O)N[C@@H](Cc1c[nH]c2ccccc12)C(=O)O [oleoyl l-Tryptophan]
GlyT2 I545L mutant; [1]
  IC50: > 10 µM
GlyT2 I545L mutant; GlyT2 I545L
  % Max. inhibition: 20.2 ± 1.7 (p=0.0001) %

## CCCCC/C=C\C/C=C\C/C=C\C/C=C\CCCC(=O)NCC(=O)O [N-arachidonyl Glycine, reference compound]
GlyT2 L569F mutant; GlyT2 L569F, mean (95% CI)
  IC50: 3.59 µM
GlyT2 L569F mutant; GlyT2 L569F
  % Max. inhibition: 63.7 ± 19.0 (p=0.9990) %
GlyT2 F428A mutant; GlyT2 F428A
  % Max. inhibition (% inhibition at the highest concentration of inhibitor used): 64.7 ± 6.6^b (p=0.9998) %
GlyT2 F428A mutant; GlyT2 F428A, mean (95% CI)
  IC50: 14.4 µM

## CCCCCCCC/C=C\CCCCCCCC(=O)N[C@H](C(=O)O)C(C)C [oleoyl l-Valine]
GlyT2 I545L mutant; GlyT2 I545L, footnote b
  % Max. inhibition (% inhibition at the highest concentration of inhibitor used): 22.5 ± 8.0^b (p=0.0001) %
GlyT2 I545L mutant; [1]
  IC50: > 10 µM

## CCCCCCCC/C=C\CCCCCCCC(=O)NCC(=O)O [N-oleoyl Glycine, reference compound]
GlyT2 L569F mutant; GlyT2 L569F, greater than maximum concentration applied (footnote a)
  IC50: > 10 µM
GlyT2 L569F mutant; GlyT2 L569F
  % Max. inhibition: 32.5 ± 3.6 (p=0.0005) %
GlyT2 F428A mutant; GlyT2 F428A
  IC50: > 10 µM
GlyT2 F428A mutant; GlyT2 F428A, mean ± SEM
  % Max. inhibition: 25.4 ± 4.9 (p=0.0001) %

## NCC(=O)O [Glycine]
GlyT2 L569F mutant; glycine transport, GlyT2 L569F (TM8)
  EC50: 7 ± 0.6 µM
GlyT2 F428A mutant; glycine transport, GlyT2 F428A (TM5)
  EC50: 6.2 ± 0.4 µM

## CCCCCCCC/C=C\CCCCCCCC(=O)N[C@@H](CC(=O)O)C(=O)O [oleoyl l-Aspartate]
GlyT2 I545L mutant; [1]
  IC50: > 10 µM
GlyT2 I545L mutant; GlyT2 I545L
  % Max. inhibition: 4.9 ± 6.4 (p=0.0001) %

## CCCCCCCC/C=C\CCCCCCCC(=O)O[C@H](CC(=O)[O-])C[N+](C)(C)C [oleoyl L-Carnitine, reference compound]
GlyT2 L569F mutant; GlyT2 L569F, footnote b
  % Max. inhibition (% inhibition at the highest concentration of inhibitor used): 45.5 ± 7.0^b (p=0.0038) %
GlyT2 L569F mutant; GlyT2 L569F, mean (95% CI)
  IC50: 1.2 µM
GlyT2 F428A mutant; GlyT2 F428A
  IC50: > 3 µM
  % Max. inhibition (% inhibition at the highest concentration of inhibitor used): 22.7 ± 3.0^b (p=0.0001) %
